{"source": "patent US5332811A", "about": "“Etopside analogs” (priority 1991, dated 1994)", "key": {"[1]": {"biological_target": "Human DNA topoisomerase II", "experiment": "DNA topoisomerase II assay (P4 unknotting reaction)", "assay_type": "biochemical", "conditions": "for IC50: read-out: Inhibition of DNA Topoisomerase II Activity ID50; for inhibition of DNA topoisomerase activity relative to etoposide: compared with etoposide", "method": "(§1) The compounds of the present invention were tested for their degree of inhibitory activity on human type II DNA topoisomerase, their effect on the formation of protein-linked DNA breakage, and their cytotoxicity. […] For a description of the assays used with respect to the compounds listed in Tables 1 to 5 see Thurston, L.S., Irie, H., Tani, S., Han, F. S., Liu, Z. C., Cheng, Y.C., and Lee, K. H., Antitumor Agents 78. Inhibition of Human DNA Topoisomerase II by Podophyllotoxin and Peltatin Analogues, J. Med. Chem. 29, 1547 (1986), and the references cited therein, herein incorporated by reference.\nHuman DNA topoisomerase II was isolated from peripheral blast cells of a patient with acute leukemia. The isolation procedure is described in Thurston, L., Imakura, Y., Haruna, M., Li, Z. C., Liu, S. Y., and Lee, K. H., J. Med. Chem., 31, […] (1988) and is a partial combination of the procedure described in Goto, T., Laiapia, P. and Wang, J., J. Biol. Chem., 259, 10422 (1984) and Halligan, B., Edwards, K., and Liu, L., J. Biol. Chem., 260, 2475 (1985) which are herein specifically incorporated by reference.\n(§2) Drugs were dissolved in Me2 SO at a concentration of 20 mM as the stock solution and diluted before use with water to the desired concentration of each drug.\nThe P4 unknotting reaction was a modification of the procedure described by Hseih, T., J. Biol. Chem., 258, 8413 (1985), which is herein specifically incorporated by reference.\nThe reaction mixture (20 μL), which contained 50 mM HEPES, pH 7.0, 50 mM KCI, 100 mM NaCl, 0.1 mM EDTA, 10 mM MgCl2, 1.0 mM ATP, 50 μg/mL bovine serum albumin, 0.4 μg P4knotted DNA, and enzyme, was incubated with or without drugs.\nThe reaction mixture was incubated at 37° C. for 30 min and terminated by adding 5.0 μl of a stop solution (2% sodium dodecyl sulfate, 20% glycerol, 0.05% bromophenol blue). These samples were loaded onto a 1% agarose gel and electrophoresed at 55 V overnight with an electrophoresis buffer that contained 90 mM Tris-boric acid, pH 8.3, and 2.5 mM EDTA. At completion, the gel was stained in 0.5 μg/mL of ethidium bromide. Then a photograph was taken of the DNA bands visualized with fluorescence induced by a long-wavelength UV lamp. […]"}, "[2]": {"system": "covalent topoisomerase II-DNA complexes", "experiment": "K-SDS precipitation assay for protein-DNA complexes in KB ATCC cells (cellular protein-DNA complex formation)", "assay_type": "cell-based", "conditions": "compared with etoposide", "method": "as §1, with “cytotoxicity. The inhibitory activity for compounds of the present invention correlated with the ability of the compounds to cause DNA strand breakage.” for “cytotoxicity.”\nas §2\nThe intracellular formation of covalent topoisomerase II-DNA complexes was quantitated using the potassium SDS precipitation assay, a procedure adapted from the method described in Rowe, T. C., Chen, G. L., Hsiang, Y. H., and Liu, L., Cancer Res., 46, 2021 (1986) (hereinafter Rowe et al.), which is herein specifically incorporated by reference. KB ATCC cells were prelabeled with 0.05 mCi/ml ^14 C-thymidine (specific activity 50.5 mCi/mmol) for 18 hr. A final concentration of 5×10^5 cells/sample were treated with 10 μM of the drugs at 37° C. for 1 hr and proceeded according to the procedure described by Rowe et al. to detect the protein linked DNA levels."}, "KB cells": {"system": "KB cells", "experiment": "Cytotoxicity: 50% reduction in cell number of KB cells after three day incubation", "assay_type": "cell-based", "conditions": "Homo sapiens, 72 h, read-out: Cytotoxicity ID50 KB", "method": "as §1, with “cytotoxicity. The inhibitory activity for compounds of the present invention correlated with the ability of the compounds to cause DNA strand breakage.” for “cytotoxicity.”\nin cell number after three day incubation."}, "[3]": {"conditions": "clinical level; background; cited from earlier work"}, "[4]": {"conditions": "clinical level; background; cited from earlier work", "remark": "listed apart in the source"}, "[5]": {"system": "several human neoplasms, including small cell carcinomas of the lung, testicular carcinomas, Hodgkin's disease, leukemia, lymphoma and Kaposi's Sarcoma", "conditions": "background; cited from earlier work"}, "[6]": {"system": "Human DNA topoisomerase II", "conditions": "at higher concentrations; Thurston et al. 1986; cited from earlier work"}, "[7]": {"conditions": "Table 1, based on degree of inhibition at 25, 50, and 100 μM"}, "[8]": {"conditions": "Table 1, KB cells, three day incubation"}, "[9]": {"conditions": "Table 3, based on degree of inhibition at 20, 25, 50 and 100 μM"}, "[10]": {"conditions": "Table 3, KB cells, three day incubation"}, "[11]": {"conditions": "Table 5, based on degree of inhibition at 10, 25, 50 and 100 μM"}}, "note": "Read-outs that look alike come from different tables or passages of the source.", "data": [{"smiles": "COc1cc(C2c3cc4c(cc3C(NCc3cccc(C#N)c3)C3COC(=O)C23)OCO4)cc(OC)c1O", "note": "(stereo not drawn) [Example 10, 4'-O-Demethyl-4β-(3\"-cyanobenzylamino)-4-desoxypodophyllotoxin]", "values": [{"measurement": "IC50", "setting": "[1]; [7]", "result": 25, "unit": "µM"}, {"measurement": "inhibition of DNA topoisomerase activity relative to etoposide", "setting": "[1]", "result": "over twice"}, {"measurement": "inhibition of cellular protein-DNA complex formation relative to etoposide", "setting": "[2]", "result": "over twice"}, {"measurement": "IC50", "setting": "KB cells; [8]", "result": "< 0.4", "unit": "µM"}]}, {"smiles": "COc1cc(C2c3cc4c(cc3C(NCc3cccc(F)c3)C3COC(=O)C23)OCO4)cc(OC)c1O", "note": "(stereo not drawn) [Example 8, 4-O-Dimethyl-4β-(3\"-fluorobenzylamino)-4-desoxypodophyllotoxin]", "values": [{"measurement": "IC50", "setting": "[1]; [7]", "result": 25, "unit": "µM"}, {"measurement": "inhibition of DNA topoisomerase activity relative to etoposide", "setting": "[1]", "result": "over twice"}, {"measurement": "inhibition of cellular protein-DNA complex formation relative to etoposide", "setting": "[2]", "result": "over twice"}, {"measurement": "IC50", "setting": "KB cells; [8]", "result": 3, "unit": "µM"}]}, {"smiles": "COc1cc([C@@H]2c3cc4c(cc3[C@@H](O[C@@H]3O[C@@H]5CO[C@@H](C)O[C@H]5[C@H](O)[C@H]3O)[C@H]3COC(=O)[C@H]23)OCO4)cc(OC)c1O", "note": "[etoposide]", "values": [{"measurement": "oral bioavailability", "setting": "[3]", "result": "poor oral bioavailability"}, {"measurement": "myelosuppression", "setting": "[4]", "result": "myelosuppression"}, {"measurement": "IC50", "setting": "KB cells; [8]", "result": 0.2, "unit": "µM"}, {"measurement": "therapeutic activity in several human neoplasms", "setting": "[5]", "result": "exhibits therapeutic activity in several human neoplasms"}]}, {"smiles": "COc1cc(C2c3cc4c(cc3C(NCc3ccc(C#N)cc3)C3COC(=O)C23)OCO4)cc(OC)c1O", "note": "(stereo not drawn) [Example 11, 4'-O-Demethyl-4β-(4\"-cyanobenzylamino)-4-desoxypodophyllotoxin]", "values": [{"measurement": "IC50", "setting": "[1]; [7]", "result": 25, "unit": "µM"}, {"measurement": "inhibition of DNA topoisomerase activity relative to etoposide", "setting": "[1]", "result": "over twice"}, {"measurement": "inhibition of cellular protein-DNA complex formation relative to etoposide", "setting": "[2]", "result": "over twice"}, {"measurement": "IC50", "setting": "KB cells; [8]", "result": "< 0.4", "unit": "µM"}]}, {"smiles": "COc1cc(C2c3cc4c(cc3C(Nc3ccc([N+](=O)[O-])cc3)C3COC(=O)C23)OCO4)cc(O)c1O", "note": "(stereo not drawn) [Example 23, 3',4'-O-Didemethyl-4β-(4\"-nitroanilino)-4-desoxypodophyllotoxin]", "values": [{"measurement": "IC50", "setting": "[1]; Table 2, based on degree of inhibition at 10, 25, 50 and 100 μM", "result": 10, "unit": "µM"}, {"measurement": "inhibition of DNA topoisomerase activity relative to etoposide", "setting": "[1]", "result": "over twice"}, {"measurement": "inhibition of cellular protein-DNA complex formation relative to etoposide", "setting": "[2]", "result": "over twice"}, {"measurement": "IC50", "setting": "KB cells; Table 2, KB cells, three day incubation", "result": 1.3, "unit": "µM"}]}, {"smiles": "CCOC1c2cc3c(cc2C(c2cc(OC)c(O)c(OC)c2)C2C(=O)OCC12)OCO3", "note": "(stereo not drawn) [4'-demethyl-epipodophyllotoxin ethyl ether]", "values": [{"measurement": "inhibitory activity of DNA topoisomerase II", "setting": "[6]", "result": "preserves the inhibitory activity of DNA topoisomerase II intact at higher concentrations"}]}, {"smiles": "COc1cc([C@@H]2c3cc(O)c(O)cc3[C@@H](Nc3ccc([N+](=O)[O-])cc3)[C@H]3COC(=O)[C@H]23)cc(OC)c1O", "note": "[Example 27, 6,7-O-Demethylene-4'-O-demethyl-4β-(4\"-nitroanilino)-4-desoxypodophyllotoxin]", "values": [{"measurement": "IC50", "setting": "[1]; [9]", "result": 20, "unit": "µM"}, {"measurement": "IC50", "setting": "KB cells; [10]", "result": 0.76, "unit": "µM"}]}, {"smiles": "COc1cc(CNC2c3cc4c(cc3C(c3cc(OC)c(O)c(OC)c3)C3C(=O)OCC23)OCO4)cc(OC)c1", "note": "(stereo not drawn) [Example 12, 4'-O-Demethyl-4β-(3\",5\"-dimethoxybenzylamino)-4-desoxypodophyllotoxin]", "values": [{"measurement": "IC50", "setting": "[1]; [7]", "result": 100, "unit": "µM"}, {"measurement": "IC50", "setting": "KB cells; [8]", "result": 1.7, "unit": "µM"}]}, {"smiles": "COc1cc([C@@H]2c3cc(O)c(O)cc3[C@@H](Nc3ccc(C#N)cc3)[C@H]3COC(=O)[C@H]23)cc(OC)c1O", "note": "[Example 29, 6,7-O-Demethylene-4'-O-demethyl-4β-(cyanoanilino)-4-deoxypodophyllotoxin]", "values": [{"measurement": "IC50", "setting": "[1]; [9]", "result": 20, "unit": "µM"}, {"measurement": "IC50", "setting": "KB cells; [10]", "result": 1, "unit": "µM"}]}, {"smiles": "COC1=CC([C@@H]2c3cc4c(cc3[C@@H](Nc3ccc([N+](=O)[O-])cc3)[C@H]3COC(=O)[C@@H]32)OCO4)=CC(=O)C1=O", "note": "[Example 44, 3',4'-Didemethoxy-3',4'-dioxo-4β-(4\"-nitroanilino)-4-desoxypodophyllotoxin]", "values": [{"measurement": "IC50", "setting": "[1]; [11]", "result": 10, "unit": "µM"}, {"measurement": "IC50", "setting": "KB cells; KB", "result": 1.5, "unit": "µM"}]}, {"smiles": "CCOC(=O)c1ccc(N[C@@H]2c3cc(O)c(O)cc3[C@@H](c3cc(OC)c(O)c(OC)c3)[C@H]3C(=O)OC[C@@H]32)cc1", "note": "[Example 28, 6,7-O-Demethylene-4'-O-demethyl-4β-[4\"-(ethoxycarbonyl)anilino]-4-desoxypodophyllotoxin]", "values": [{"measurement": "IC50", "setting": "[1]; [9]", "result": 20, "unit": "µM"}, {"measurement": "IC50", "setting": "KB cells; [10]", "result": 0.78, "unit": "µM"}]}, {"smiles": "COc1cc2c(cc1OC)[C@@H](Nc1ccc(C#N)cc1)[C@H]1COC(=O)[C@@H]1[C@@H]2c1cc(OC)c(O)c(OC)c1", "note": "[Example 32, 6,7-O-demethylene-6,7-O-dimethyl-4'-O-demethyl-4β-(4\"-cyanoanilino)-4-desoxypodophyllotoxin]", "values": [{"measurement": "IC50", "setting": "[1]; [9]", "result": 50, "unit": "µM"}, {"measurement": "IC50", "setting": "KB cells; [10]", "result": "< 0.4", "unit": "µM"}]}, {"smiles": "COC1=CC([C@@H]2c3cc4c(cc3[C@@H](Nc3ccc(F)cc3)[C@H]3COC(=O)[C@@H]32)OCO4)=CC(=O)C1=O", "note": "[Example 43, 3',4'-Didemethoxy-3',4'-dioxo-4β-(4\"-fluoroanilino)-4-desoxypodophyllotoxin]", "values": [{"measurement": "IC50", "setting": "[1]; [11]", "result": 25, "unit": "µM"}, {"measurement": "IC50", "setting": "KB cells; Table 5, KB cells, three day incubation", "result": "> 2.1", "unit": "µM"}]}, {"smiles": "COc1cc([C@@H]2c3cc4c(cc3[C@@H](NC(=O)c3cccc(C#N)c3)[C@H]3COC(=O)[C@H]23)OCO4)cc(OC)c1O", "note": "[Example 39, 4'-O-Demethyl-4β-[(3\"-cyanobenzoyl)amino]-4-desoxypodophyllotoxin]", "values": [{"measurement": "IC50", "setting": "[1]; Table 4, based on degree of inhibition at 10, 25, 50 and 100 μM", "result": 50, "unit": "µM"}, {"measurement": "IC50", "setting": "KB cells; Table 4, KB cells, three day incubation", "result": 1, "unit": "µM"}]}, {"smiles": "COc1cc(C2c3cc4c(cc3C(NCc3ccc(F)cc3)C3COC(=O)C23)OCO4)cc(OC)c1O", "note": "(stereo not drawn) [Example 9, 4'-O-Demethyl-4β-(4\"-fluorobenzylamino)-4-desoxypodophyllotoxin]", "values": [{"measurement": "IC50", "setting": "[1]; [7]", "result": 50, "unit": "µM"}, {"measurement": "IC50", "setting": "KB cells; [8]", "result": "> 4", "unit": "µM"}]}]}
